Measured values: patent publication US20150322083A1, “(THIENO[2,3-b][1,5]BENZOXAZEPIN-4-YL)PIPERAZIN-1-YL COMPOUNDS AS SELECTIVE 5-HT2A INVERSE AGONISTS” (Eli Lilly and Company, priority 2014, published 2015)

Assays:
[1] = test system: sleep and locomotor activity of rats; test: Sleep and behavioral monitoring in rats (EEG, EMG, motion); type: in vivo; conditions: rat; for Rebound Insomnia, Adj. Mean: NREM + REM sleep in 7th-9th hours post-treatment; for Rebound Insomnia, Adj. Mean / REM inhibition, Adj. Mean / Cumulative NREM sleep, Adj. Mean / Cumulative Total sleep, Adj. Mean / Locomotor Activity Intensity, Adj. Mean: difference from vehicle; for REM inhibition, Adj. Mean: REM sleep in first 12 hr. post-treatment; for Average Sleep Bout, Adj. Mean / Longest Sleep Bout / Cumulative NREM sleep, Adj. Mean / Cumulative Total sleep, Adj. Mean / Locomotor Activity Intensity, Adj. Mean: first 6 hr. post-treatment
Excerpt: Sleep and behavioral monitoring in rats: The compounds of the present invention may be tested in rats for their ability to increase the amount of sleep or decrease sleep interruption or both without undesired effects such as inhibition of REM sleep, waking motor impairment, and/or rebound insomnia. Test animals are continuously monitored by electro-encephalograms (EEG), electromyograms (EMG), and motion to measure cumulative nonREM sleep, cumulative total sleep, average sleep bout duration, longest sleep bout duration, rebound insomnia, REM sleep inhibition and locomotor activity intensity during wakefulness. Methods for such studies are known in the art (see for example methods described in Edgar D M, Seidel W F. Modafinil induces wakefulness without intensifying motor activity or subsequent rebound hypersomnolence in the rat. J Pharmacology & Experimental Therapeutics 1997; 283: 757-769; van Gelder R N, Edgar D M, Dement W C. Real-time automated sleep scoring: validation of a microcomputer-based system for mice. Sleep 1991, 14: 48-55; and Gross B A, Walsh C M, Turakhia A A, Booth V, Mashour G A, Poe G R. Open-source logic-based automated sleep scoring software using electrophysiological recordings in rats. J Neurosci Methods. 2009; 184(1):10-8.) Studies are conducted as follows:
Animal preparation. Adult, male Wistar rats (approximately 270-300 g at time of surgery) are surgically fitted for chronic recording of EEG, EMG, and motion as follows: Rats are surgically prepared with a cranial implant consisting of four stainless steel screws for EEG recording (two frontal [3.9 mm anterior from bregma, and ±2.0 mm mediolaterally] and two occipital [6.4 mm posterior from bregma, ±5.5 mm mediolaterally]), and with two Teflon-coated stainless steel wires for EMG recording (positioned under the nuchal trapezoid muscles). All leads are soldered to a miniature connector (Microtech, Boothwyn, Pa.) prior to surgery. The implant assembly is affixed to the skull by the combination of the stainless steel EEG recording screws, cyanoacrylate applied between the implant connector and skull, and dental acrylic. Locomotor activity is monitored via a miniature transmitter (Minimitter PDT4000G, Philips Respironics, Bend, Oreg.) surgically placed into the abdomen. At least 3 weeks are allowed for recovery.
Recording environment. Each rat is housed individually within a microisolator cage modified with an inserted polycarbonate filter-top riser to allow more vertical headroom. A flexible cable that minimally restricts movement is connected at one end to a commutator afixed to the cage top and at the other end to the animal's cranial implant. Each cage is located within separate, ventilated compartments of a stainless steel sleep-wake recording chamber. Food and water are available ad libitum and the ambient temperature is maintained at about 23±1° C. A 24-hr light-dark cycle (LD 12:12) using fluorescent light is maintained throughout the study. Relative humidity averages approximately 50%. Animals are undisturbed for at least 30 hrs before and after each treatment.
Study design and dosing. The vehicle (placebo, methylcellulose 15 centipoise 0.25% in water) or one of the test compound dose levels is administered orally at 1 mL/kg pseudo-randomly such that no rat receives the same treatment twice, and no rat receives more than two of the 8 treatments in any one study. Each rat is removed from its cage for about a minute to be weighed and treated. At least 6 days “washout” period precede and follow each treatment.
Data collection. […]

Adrenergic alpha1A = Adrenergic alpha1A (Homo sapiens, UniProt P35348); test: Adrenergic alpha1A binding
Sequence of Adrenergic alpha1A (P35348 whole entry): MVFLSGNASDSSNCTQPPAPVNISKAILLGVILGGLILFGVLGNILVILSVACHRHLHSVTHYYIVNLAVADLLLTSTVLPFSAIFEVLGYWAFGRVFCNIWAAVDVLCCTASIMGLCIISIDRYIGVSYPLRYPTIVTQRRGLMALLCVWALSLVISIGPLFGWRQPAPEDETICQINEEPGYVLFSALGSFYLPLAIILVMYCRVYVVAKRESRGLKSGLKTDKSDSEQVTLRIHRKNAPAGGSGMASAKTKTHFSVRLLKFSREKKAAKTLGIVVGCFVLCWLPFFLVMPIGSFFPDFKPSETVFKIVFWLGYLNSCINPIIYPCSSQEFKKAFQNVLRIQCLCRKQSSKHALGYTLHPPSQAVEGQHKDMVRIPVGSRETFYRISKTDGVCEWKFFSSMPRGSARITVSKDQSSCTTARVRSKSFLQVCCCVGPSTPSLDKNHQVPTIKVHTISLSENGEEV
Description: (§1) Curves are evaluated using a 4-parameter logistic nonlinear equation to obtain the concentration of competitor causing 50% inhibition of radioligand binding (IC50). Equilibrium dissociation constants (Ki) are calculated according to the equation Ki=IC50/(1+L/Kd), where L equals the concentration of radioligand used in the experiment and Kd equals the equilibrium dissociation constant of the radioligand for the receptor, determined from standard saturation analysis or homologous competition experiments. Reported values for Ki, where n values are indicated, are shown as geometric mean±the standard error of the mean (SEM), with the number of replicate determinations indicated by n. Geometric means are calculated by the equation GeoMean=10̂(Average(log Ki 1+log Ki 2+ . . . log Ki n)/[…]).
(§2) Further, the compounds of the invention may be tested in binding assays and functional activity assays by well known methods for other physiologically important receptors such as, but not limited to, the hERG channel, other serotonin receptors (specifically 5-HT1B receptors, lack of agonist activity at 5-HT2B receptors, 5-HT2C, 5-HT5, 5-HT6, and 5-HT7 receptors), dopaminergic receptors (specifically D1, D2, and D3), H1 receptors, GABAA receptors, adrenergic receptors and monoamine transporters.

5-HT6 = 5-HT6 (Homo sapiens, UniProt P50406); test: 5-HT6 binding
Sequence of 5-HT6 (P50406 whole entry, species assumed): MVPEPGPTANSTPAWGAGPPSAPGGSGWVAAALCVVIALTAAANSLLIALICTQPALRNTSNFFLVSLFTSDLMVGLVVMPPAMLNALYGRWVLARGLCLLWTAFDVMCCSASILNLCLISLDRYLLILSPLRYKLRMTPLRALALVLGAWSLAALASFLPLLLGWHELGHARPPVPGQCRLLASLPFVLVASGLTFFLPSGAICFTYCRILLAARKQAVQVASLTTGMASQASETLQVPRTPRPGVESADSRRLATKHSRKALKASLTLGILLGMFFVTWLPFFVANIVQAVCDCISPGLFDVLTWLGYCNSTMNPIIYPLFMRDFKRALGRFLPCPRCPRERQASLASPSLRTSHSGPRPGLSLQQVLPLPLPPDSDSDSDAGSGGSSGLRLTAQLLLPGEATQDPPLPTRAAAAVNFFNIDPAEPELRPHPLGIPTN
Description: as §1, §2

Serotonin Transporter = Serotonin Transporter (Homo sapiens, UniProt P31645); test: Serotonin transporter binding
Sequence of Serotonin Transporter (P31645 whole entry): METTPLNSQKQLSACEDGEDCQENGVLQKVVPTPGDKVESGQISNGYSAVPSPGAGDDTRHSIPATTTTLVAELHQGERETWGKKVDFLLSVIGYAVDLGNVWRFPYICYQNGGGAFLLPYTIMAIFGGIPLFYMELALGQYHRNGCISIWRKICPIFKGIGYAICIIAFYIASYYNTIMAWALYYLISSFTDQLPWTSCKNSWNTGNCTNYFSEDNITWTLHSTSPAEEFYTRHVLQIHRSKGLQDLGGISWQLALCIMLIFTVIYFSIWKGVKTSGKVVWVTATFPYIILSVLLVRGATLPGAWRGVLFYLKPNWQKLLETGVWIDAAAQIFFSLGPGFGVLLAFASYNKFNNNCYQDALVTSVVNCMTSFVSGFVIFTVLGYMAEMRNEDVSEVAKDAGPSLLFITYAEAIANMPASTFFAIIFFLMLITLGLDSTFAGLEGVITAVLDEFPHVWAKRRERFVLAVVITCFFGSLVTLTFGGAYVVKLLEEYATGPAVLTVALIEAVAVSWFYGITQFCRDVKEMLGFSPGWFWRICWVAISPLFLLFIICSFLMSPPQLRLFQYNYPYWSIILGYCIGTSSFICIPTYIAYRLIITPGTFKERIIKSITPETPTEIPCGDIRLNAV
Description: as §1, §2

[2] = PO, 6 hr. after treatment, 4 parameter logistic regression

Structure (SMILES): Cc1ccc2c(c1)Oc1sc(SC(C)C)cc1C(N1CCN(CC(C)(C)C(=O)O)CC1)=N2 [Example 1, 3-[4-(2-isopropylsulfanyl-8-methyl-thieno[2,3-b][1,5]benzoxazepin-4-yl)piperazin-1-yl]-2,2-dimethyl-propanoic acid]
- Rebound Insomnia, Adj. Mean ([1]; 0.1 mg/kg PO): -0.4 min
- REM inhibition, Adj. Mean ([1]; 0.1 mg/kg PO): 0.5 min
- Average Sleep Bout, Adj. Mean ([1]; 0.1 mg/kg PO): 1.09 n-fold increase over vehicle controls
- Longest Sleep Bout ([1]; 0.1 mg/kg PO): 0.85 n-fold increase over vehicle controls
- Cumulative NREM sleep, Adj. Mean ([1]; 0.1 mg/kg PO): 14.6 min
- Cumulative Total sleep, Adj. Mean ([1]; 0.1 mg/kg PO): 13.1 min
- Locomotor Activity Intensity, Adj. Mean ([1]; 0.1 mg/kg PO): −1.31 LMA counts per minute of EEG-defined wakefulness
- Rebound Insomnia, Adj. Mean ([1]; 0.25 mg/kg PO): -1.0 min
- REM inhibition, Adj. Mean ([1]; 0.25 mg/kg PO): 1.4 min
- Average Sleep Bout, Adj. Mean ([1]; 0.25 mg/kg PO): 1.32 n-fold increase over vehicle controls
- Longest Sleep Bout ([1]; 0.25 mg/kg PO): 1.49 n-fold increase over vehicle controls
- Cumulative NREM sleep, Adj. Mean ([1]; 0.25 mg/kg PO): 17.8 min
- Cumulative Total sleep, Adj. Mean ([1]; 0.25 mg/kg PO): 21.1 min
- Locomotor Activity Intensity, Adj. Mean ([1]; 0.25 mg/kg PO): −1.22 LMA counts per minute of EEG-defined wakefulness
- Rebound Insomnia, Adj. Mean ([1]; 0.5 mg/kg PO): 4.4 min
- REM inhibition, Adj. Mean ([1]; 0.5 mg/kg PO): 6.6 min
- Average Sleep Bout, Adj. Mean ([1]; 0.5 mg/kg PO): 1.75 n-fold increase over vehicle controls
- Longest Sleep Bout ([1]; 0.5 mg/kg PO): 1.79 n-fold increase over vehicle controls
- Cumulative NREM sleep, Adj. Mean ([1]; 0.5 mg/kg PO): 24.1 min
- Cumulative Total sleep, Adj. Mean ([1]; 0.5 mg/kg PO): 28.2 min
- Locomotor Activity Intensity, Adj. Mean ([1]; 0.5 mg/kg PO): −1.49 LMA counts per minute of EEG-defined wakefulness
- Rebound Insomnia, Adj. Mean ([1]; 1 mg/kg PO): 1.5 min
- REM inhibition, Adj. Mean ([1]; 1 mg/kg PO): 5.6 min
- Average Sleep Bout, Adj. Mean ([1]; 1 mg/kg PO): 1.71 n-fold increase over vehicle controls
- Longest Sleep Bout ([1]; 1 mg/kg PO): 1.89 n-fold increase over vehicle controls
- Cumulative NREM sleep, Adj. Mean ([1]; 1 mg/kg PO): 30.0 min
- Cumulative Total sleep, Adj. Mean ([1]; 1 mg/kg PO): 31.4 min
- Locomotor Activity Intensity, Adj. Mean ([1]; 1 mg/kg PO): −4.04 LMA counts per minute of EEG-defined wakefulness
- Rebound Insomnia, Adj. Mean ([1]; 3 mg/kg PO): 8.8 min
- REM inhibition, Adj. Mean ([1]; 3 mg/kg PO): -1.4 min
- Average Sleep Bout, Adj. Mean ([1]; 3 mg/kg PO): 1.75 n-fold increase over vehicle controls
- Longest Sleep Bout ([1]; 3 mg/kg PO): 2.17 n-fold increase over vehicle controls
- Cumulative NREM sleep, Adj. Mean ([1]; 3 mg/kg PO): 31.5 min
- Cumulative Total sleep, Adj. Mean ([1]; 3 mg/kg PO): 32.8 min
- Locomotor Activity Intensity, Adj. Mean ([1]; 3 mg/kg PO): −1.86 LMA counts per minute of EEG-defined wakefulness
- Rebound Insomnia, Adj. Mean ([1]; 10 mg/kg PO): 2.5 min
- REM inhibition, Adj. Mean ([1]; 10 mg/kg PO): -4.4 min
- Average Sleep Bout, Adj. Mean ([1]; 10 mg/kg PO): 2.01 n-fold increase over vehicle controls
- Longest Sleep Bout ([1]; 10 mg/kg PO): 2.29 n-fold increase over vehicle controls
- Cumulative NREM sleep, Adj. Mean ([1]; 10 mg/kg PO): 38.3 min
- Cumulative Total sleep, Adj. Mean ([1]; 10 mg/kg PO): 39.1 min
- Locomotor Activity Intensity, Adj. Mean ([1]; 10 mg/kg PO): −1.90 LMA counts per minute of EEG-defined wakefulness
- Rebound Insomnia, Adj. Mean ([1]; 20 mg/kg PO): 2.1 min
- REM inhibition, Adj. Mean ([1]; 20 mg/kg PO): -9.3 min
- Average Sleep Bout, Adj. Mean ([1]; 20 mg/kg PO): 1.88 n-fold increase over vehicle controls
- Longest Sleep Bout ([1]; 20 mg/kg PO): 1.90 n-fold increase over vehicle controls
- Cumulative NREM sleep, Adj. Mean ([1]; 20 mg/kg PO): 40.2 min
- Cumulative Total sleep, Adj. Mean ([1]; 20 mg/kg PO): 38.0 min
- Locomotor Activity Intensity, Adj. Mean ([1]; 20 mg/kg PO): −0.59 LMA counts per minute of EEG-defined wakefulness
- apparent LMI impairment (in words) ([1]; 1 mg/kg PO): statistically significant at that dose
- REM sleep inhibition versus threshold value of -10 min. (in words) ([1]; 20 mg/kg PO): exceeded the threshhold value
- effect on cumulative NREM sleep time and cumulative total sleep time (in words) ([1]; PO): statistically significant increase
- Estimated efficacy dose, Average sleep bout (1.5-fold increase) [1, 2]: 0.33 mg/kg
- Estimated efficacy dose, Longest sleep bout (1.75-fold increase) [1, 2]: 0.45 mg/kg
- Estimated efficacy dose, NREM accumulation = 30 min. [1, 2]: 1.5 mg/kg
- Estimated efficacy dose, Total sleep accumulation = 25 min. [1, 2]: 0.39 mg/kg
- rebound insomnia or REM sleep inhibition (in words) ([1]; PO, at up to 10 times the conservative efficacy dose): without statistically significant rebound insomnia or REM sleep inhibition
- Ki (Adrenergic alpha1A): 4.45 µM
- Ki (5-HT6): 1.13 µM
- Ki (Serotonin Transporter): > 0.521 µM
